Measurements from PubChem BioAssay AID2060327 (Molecular Pharmacology Branch, DTP, NCI, 2025).

Tested on: PC-3 multi-cell spheroids, viability
Experiment: Anticancer human tumor PC-3 cell line growth inhibition [IpAb];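 note: spheroids exposed to compounds for 7 days before readout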;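 for viability, T/C: 100% = DMSO vehicle control wells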
Details: for IC50: curve of first compound; for viability, T/C: stronger effect = lower value
In short: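 Spheroids of 60% malignant cells, 25% HUVEC and 15% MSC were exposed to targeted agents combined with ipatasertib or abemaciclib. Doses started at or near clinical Cmax (10 microM when unknown) and fell in half-log steps.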

[1] = second compound 0.1 µM, first compound 0.0316 µM
[2] = second compound 0.1 µM, first compound 0.1 µM
[3] = second compound 0.1 µM, first compound 0.316 µM
[4] = second compound 0.1 µM, first compound 1 µM
[5] = second compound 0.1 µM, first compound 3.16 µM
[6] = second compound 0.1 µM, first compound 10 µM
[7] = second compound 0.316 µM, first compound 0.0316 µM
[8] = second compound 0.316 µM, first compound 0.1 µM
[9] = second compound 0.316 µM, first compound 0.316 µM
[10] = second compound 0.316 µM, first compound 1 µM
[11] = second compound 0.316 µM, first compound 3.16 µM
[12] = second compound 0.316 µM, first compound 10 µM
[13] = second compound 1 µM, first compound 0.0316 µM
[14] = second compound 1 µM, first compound 0.1 µM
[15] = second compound 1 µM, first compound 0.316 µM
[16] = second compound 1 µM, first compound 1 µM
[17] = second compound 1 µM, first compound 3.16 µM
[18] = second compound 1 µM, first compound 10 µM
[19] = second compound 3.16 µM, first compound 0.0316 µM
[20] = second compound 3.16 µM, first compound 0.1 µM
[21] = second compound 10 µM, first compound 0.0316 µM
[22] = second compound 10 µM, first compound 0.1 µM
[23] = second compound 0.01 µM, first compound 0.0316 µM
[24] = second compound 0.01 µM, first compound 0.1 µM
[25] = second compound 0.01 µM, first compound 0.316 µM
[26] = second compound 0.01 µM, first compound 1 µM
[27] = second compound 0.01 µM, first compound 3.16 µM
[28] = second compound 0.01 µM, first compound 10 µM
[29] = second compound 0.0316 µM, first compound 0.0316 µM
[30] = second compound 0.0316 µM, first compound 0.1 µM
[31] = second compound 0.0316 µM, first compound 0.316 µM
[32] = second compound 0.0316 µM, first compound 1 µM
[33] = second compound 0.0316 µM, first compound 3.16 µM
[34] = second compound 0.0316 µM, first compound 10 µM

CC1(C)CCC(CN2CCN(c3ccc(C(=O)NS(=O)(=O)c4ccc(NCC5CCOCC5)c([N+](=O)[O-])c4)c(Oc4cnc5[nH]ccc5c4)c3)CC2)=C(c2ccc(Cl)cc2)C1 + CC(C)NCC(C(=O)N1CCN(c2ncnc3c2C(C)CC3O)CC1)c1ccc(Cl)cc1
IC50 (second compound 0.1 µM): 4270 nM | IC50 (second compound 0.316 µM): < 31.6 nM | IC50 (second compound 1 µM): < 31.6 nM | IC50 (second compound 3.16 µM): < 31.6 nM | IC50 (second compound 10 µM): < 31.6 nM | viability, T/C [1]: 69.2% | viability, T/C [2]: 63.2% | viability, T/C [3]: 67.6% | viability, T/C [4]: 63.2% | viability, T/C [5]: 69% | viability, T/C [6]: 3.74% | viability, T/C [7]: 43% | viability, T/C [8]: 46.8% | viability, T/C [9]: 42.7% | viability, T/C [10]: 45.3% | viability, T/C [11]: 35.7% | viability, T/C [12]: 3.22% | viability, T/C [13]: 22% | viability, T/C [14]: 20.5% | viability, T/C [15]: 22.4% | viability, T/C [16]: 19% | viability, T/C [17]: 15.8% | viability, T/C [18]: 3.59% | viability, T/C [19]: 14.5% | viability, T/C [20]: 15.3% | viability, T/C (second compound 3.16 µM, first compound 0.316 µM): 12.4% | viability, T/C (second compound 3.16 µM, first compound 1 µM): 13.4% | viability, T/C (second compound 3.16 µM, first compound 3.16 µM): 12.7% | viability, T/C (second compound 3.16 µM, first compound 10 µM): 3.12% | viability, T/C [21]: 13.7% | viability, T/C [22]: 12.7% | viability, T/C (second compound 10 µM, first compound 0.316 µM): 14.1% | viability, T/C (second compound 10 µM, first compound 1 µM): 11.5% | viability, T/C (second compound 10 µM, first compound 3.16 µM): 10.7% | viability, T/C (second compound 10 µM, first compound 10 µM): 0.81%

Cn1ncc(Cl)c1-c1cc(C(=O)NC(CN)Cc2cccc(F)c2)sc1Cl (stereo not given) + CCN1CCN(Cc2ccc(Nc3ncc(F)c(-c4cc(F)c5nc(C)n(C(C)C)c5c4)n3)nc2)CC1
IC50 (second compound 0.01 µM): 127 nM | IC50 (second compound 0.0316 µM): 101 nM | IC50 (second compound 0.1 µM): 62.9 nM | IC50 (second compound 0.316 µM): 52.6 nM | IC50 (second compound 1 µM): < 31.6 nM | viability, T/C [23]: 70.5% | viability, T/C [24]: 55.3% | viability, T/C [25]: 35.8% | viability, T/C [26]: 17.5% | viability, T/C [27]: 15.5% | viability, T/C [28]: 0.14% | viability, T/C [29]: 57.2% | viability, T/C [30]: 53% | viability, T/C [31]: 26.9% | viability, T/C [32]: 13.8% | viability, T/C [33]: 13.8% | viability, T/C [34]: 0.1% | viability, T/C [1]: 53.2% | viability, T/C [2]: 48.3% | viability, T/C [3]: 17.5% | viability, T/C [4]: 13.3% | viability, T/C [5]: 9.97% | viability, T/C [6]: 0.1% | viability, T/C [7]: 56.5% | viability, T/C [8]: 44% | viability, T/C [9]: 19.4% | viability, T/C [10]: 13.9% | viability, T/C [11]: 11.6% | viability, T/C [12]: 0.16% | viability, T/C [13]: 46.3% | viability, T/C [14]: 38.9% | viability, T/C [15]: 28% | viability, T/C [16]: 17.2% | viability, T/C [17]: 12.1% | viability, T/C [18]: 0.16%

Cn1ncnc1[C@H]1c2n[nH]c(=O)c3cc(F)cc(c23)N[C@@H]1c1ccc(F)cc1 + CC(C)NCC(C(=O)N1CCN(c2ncnc3c2C(C)CC3O)CC1)c1ccc(Cl)cc1
IC50 (second compound 0.1 µM): 13.3 nM | IC50 (second compound 0.316 µM): < 0.316 nM | IC50 (second compound 1 µM): < 0.316 nM | IC50 (second compound 3.16 µM): < 0.316 nM | IC50 (second compound 10 µM): < 0.316 nM | viability, T/C (second compound 0.1 µM, first compound 0.000316 µM): 78.5% | viability, T/C (second compound 0.1 µM, first compound 0.001 µM): 71.4% | viability, T/C (second compound 0.1 µM, first compound 0.00316 µM): 52.4% | viability, T/C (second compound 0.1 µM, first compound 0.01 µM): 51.8% | viability, T/C [1]: 51.6% | viability, T/C [2]: 40.1% | viability, T/C (second compound 0.316 µM, first compound 0.000316 µM): 47.1% | viability, T/C (second compound 0.316 µM, first compound 0.001 µM): 43.8% | viability, T/C (second compound 0.316 µM, first compound 0.00316 µM): 42.9% | viability, T/C (second compound 0.316 µM, first compound 0.01 µM): 40.3% | viability, T/C [7]: 37.9% | viability, T/C [8]: 32.8% | viability, T/C (second compound 1 µM, first compound 0.000316 µM): 25.3% | viability, T/C (second compound 1 µM, first compound 0.001 µM): 23.3% | viability, T/C (second compound 1 µM, first compound 0.00316 µM): 25.2% | viability, T/C (second compound 1 µM, first compound 0.01 µM): 18.4% | viability, T/C [13]: 19.9% | viability, T/C [14]: 18.7% | viability, T/C (second compound 3.16 µM, first compound 0.000316 µM): 14.2% | viability, T/C (second compound 3.16 µM, first compound 0.001 µM): 14.1% | viability, T/C (second compound 3.16 µM, first compound 0.00316 µM): 14.7% | viability, T/C (second compound 3.16 µM, first compound 0.01 µM): 13.1% | viability, T/C [19]: 13.2% | viability, T/C [20]: 13.8% | viability, T/C (second compound 10 µM, first compound 0.000316 µM): 14.8% | viability, T/C (second compound 10 µM, first compound 0.001 µM): 14% | viability, T/C (second compound 10 µM, first compound 0.00316 µM): 13.3% | viability, T/C (second compound 10 µM, first compound 0.01 µM): 11% | viability, T/C [21]: 11.6% | viability, T/C [22]: 11.3%

CCCS(=O)(=O)Nc1ccc(F)c(C(=O)c2c[nH]c3ncc(-c4ccc(Cl)cc4)cc23)c1F + CCN1CCN(Cc2ccc(Nc3ncc(F)c(-c4cc(F)c5nc(C)n(C(C)C)c5c4)n3)nc2)CC1
IC50 (second compound 0.01 µM): 9020 nM | IC50 (second compound 0.0316 µM): 6600 nM | IC50 (second compound 0.1 µM): 8630 nM | IC50 (second compound 0.316 µM): 4290 nM | IC50 (second compound 1 µM): 3410 nM | viability, T/C [23]: 92.5% | viability, T/C [24]: 96.8% | viability, T/C [25]: 104% | viability, T/C [26]: 99.5% | viability, T/C [27]: 76.3% | viability, T/C [28]: 47.4% | viability, T/C [29]: 65% | viability, T/C [30]: 79.1% | viability, T/C [31]: 71.7% | viability, T/C [32]: 77.8% | viability, T/C [33]: 69.3% | viability, T/C [34]: 38.8% | viability, T/C [1]: 57.3% | viability, T/C [2]: 57.4% | viability, T/C [3]: 68.6% | viability, T/C [4]: 64.1% | viability, T/C [5]: 61.9% | viability, T/C [6]: 34.9% | viability, T/C [7]: 64.7% | viability, T/C [8]: 64% | viability, T/C [9]: 68% | viability, T/C [10]: 62.4% | viability, T/C [11]: 57.2% | viability, T/C [12]: 30.6% | viability, T/C [13]: 61.5% | viability, T/C [14]: 58.5% | viability, T/C [15]: 65.3% | viability, T/C [16]: 54.6% | viability, T/C [17]: 52.6% | viability, T/C [18]: 30.6%
